# Data: article PMC8878317, “Chemogenomics identifies acetyl-coenzyme A synthetase as a target for malaria treatment and prevention” (Cell Chemical Biology, 2022)
# Tested on: P. falciparum 3D7 parasites
# Test: Metabolomic profiling of compound-treated parasites (LC/MS);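 as to Metabolite data: 3-Phosphoglycerate: Log2 fold change in abundance versus untreated parasite controls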;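 as to Metabolite data: Myo-Inositol: Log2 fold change in abundance versus untreated parasite controls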;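 as to Metabolite data: N-Carbamoyl-L-Aspartate: Log2 fold change in abundance versus untreated parasite controls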;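 as to Metabolite data: Nicotinate: Log2 fold change in abundance versus untreated parasite controls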
# Format: cell-based
# Set-up: Metabolite data: dTMP / Metabolite data: GMP / Metabolite data: S-Adenosyl-L-Homocysteine / Metabolite data: 1_3-Bisphosphoglyceric acid: scale not given here
# How it was run: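 Magnetically purified trophozoites (1×10^8 parasites/mL) recovered 1 h in RPMI 1640, incubated a further 2.5 h, quenched in 90% methanol with labeled aspartate. Extracts analysed by reverse-phase C18 LC with negative-mode Orbitrap MS; peak areas normalized to internal standards, blank-subtracted and averaged by condition.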
smiles,measurement,value
CCc1nc(N)nc(N)c1-c1ccc(Cl)cc1 [Pyrimethamine],Metabolite data: 1_3-Bisphosphoglyceric acid,0
same,Metabolite data: 2_3-Diphosphoglyceric acid,0.1448
same,Metabolite data: 3-Phosphoglycerate,0.06527
same,Metabolite data: 4-Aminobutyrate,0.06366
same,Metabolite data: 4-Phosphopantothenate,0.159
same,Metabolite data: 4-phosphopantetheine,0
same,Metabolite data: 5-aminopentanoic acid,0
same,Metabolite data: 5-phosphoribosyl-1-pyrophosphate,0
same,Metabolite data: 6-Phospho-D-Gluconate,0.08879
same,Metabolite data: ADP-D-Glucose,0.2656
same,Metabolite data: Acetyl-CoA,0.1996
same,Metabolite data: Acetyllysine,0.2921
same,Metabolite data: Aconitate,0.4355
same,Metabolite data: CDP,0.1713
same,Metabolite data: CDP-Ethanolamine,1.312
same,Metabolite data: CDP-choline,0
same,Metabolite data: CMP,0.005842
same,Metabolite data: CTP,-0.1699
same,Metabolite data: Citrate/Isocitrate,-0.2585
same,Metabolite data: Cyclic-AMP,0.06421
same,Metabolite data: Dihydroorotate,1.359
same,Metabolite data: FAD,0.05439
same,Metabolite data: FMN,-0.4759
same,"Metabolite data: Fructose-1,6-Bisphosphate",0.2831
same,Metabolite data: Fumarate,0.3378
same,Metabolite data: GDP,0.005686
same,Metabolite data: GMP,0.1718
same,Metabolite data: GTP,-0.6779
same,Metabolite data: Glucose-1/6-Phosphate,0.1953
same,Metabolite data: Glutathione Disulfide,0.3348
same,Metabolite data: Hexose,0
same,Metabolite data: Hydroxyisocaproic acid,0
same,Metabolite data: Indole,-0.02333
same,Metabolite data: Ketoleucine,0
same,Metabolite data: L-arginino-succinate,0
same,Metabolite data: Lactate,0.8185
same,Metabolite data: Malate,0.5597
same,Metabolite data: Myo-Inositol,2.112
same,Metabolite data: N-Acetyl-Glutamate,0.1671
same,Metabolite data: N-Acetyl-L-Alanine,0.1511
same,Metabolite data: N-Acetyl-L-Ornithine,0.1555
same,Metabolite data: N-Carbamoyl-L-Aspartate,0.3085
same,Metabolite data: NAD+,0.008224
same,Metabolite data: NADH,4.9
same,Metabolite data: NADP+,0.03009
same,Metabolite data: NADPH,1.808
same,Metabolite data: Nicotinate,0.1972
same,Metabolite data: Octulose 8/1-Phosphate,-0.1128
same,Metabolite data: Orotate,0.09092
same,Metabolite data: PD,0.177
same,Metabolite data: PE,-0.01685
same,Metabolite data: PEEK,0
same,Metabolite data: Phenol Red,0
same,Metabolite data: Pyroglutamic acid,0.09576
same,Metabolite data: S-Adenosyl-L-Homocysteine,0.08183
same,Metabolite data: S-methyl-5'-thioadenosine,0.0579
same,Metabolite data: SD,0.04153
same,Metabolite data: Sedoheptulose Bisphosphate,0.1986
same,Metabolite data: UDP,0.2702
same,Metabolite data: UDP-D-Glucose,0.138
same,Metabolite data: UDP-D-Glucuronate,0.02668
same,Metabolite data: UDP-N-Acetyl-Glucosamine,0.1474
same,Metabolite data: UMP,0.1095
same,Metabolite data: UTP,-0.3099
same,Metabolite data: a-ketoglutarate,0.2017
same,Metabolite data: acetyl-aspartate,0
same,Metabolite data: arginine,0
same,Metabolite data: asparagine,0
same,Metabolite data: aspartate,0
same,Metabolite data: biotin,0
same,Metabolite data: chlorpropamide,0
same,Metabolite data: coenzyme A,0
same,Metabolite data: dAMP,-0.3497
same,Metabolite data: dATP,0.1703
same,Metabolite data: dCDP,0.2805
same,Metabolite data: dCMP,0.1423
same,Metabolite data: dCTP,-0.258
same,Metabolite data: dGDP/ADP,0.2431
same,Metabolite data: dGMP/AMP,-0.07108
same,Metabolite data: dGTP/ATP,0
same,Metabolite data: dTDP,0.3943
same,Metabolite data: dTMP,0.05289
same,Metabolite data: dTTP,-0.1782
same,Metabolite data: folate,0
same,Metabolite data: glucono-lactone,0
same,Metabolite data: glutamate,0
same,Metabolite data: glutamine,0
same,Metabolite data: glutathione,0
same,Metabolite data: histidine,0
same,Metabolite data: hydroxyproline/Aminolevulinate,0
same,Metabolite data: isoleucine,0
same,Metabolite data: leucine,0
same,Metabolite data: maleic acid,0
same,Metabolite data: methionine,0
same,Metabolite data: nicotinamide mononucleotide,0
same,Metabolite data: orotidine-5'-phosphate,0
N#Cc1cc(NC(=O)[C@H]2c3ccccc3C(=O)N(CC(F)(F)F)[C@@H]2c2cccnc2)ccc1F [SJ733],Metabolite data: 1_3-Bisphosphoglyceric acid,0
same,Metabolite data: 2_3-Diphosphoglyceric acid,-1.405
same,Metabolite data: 3-Phosphoglycerate,0.1564
same,Metabolite data: 4-Aminobutyrate,-0.6232
same,Metabolite data: 4-Phosphopantothenate,-0.06384
same,Metabolite data: 4-phosphopantetheine,0
same,Metabolite data: 5-aminopentanoic acid,0
same,Metabolite data: 5-phosphoribosyl-1-pyrophosphate,0
same,Metabolite data: 6-Phospho-D-Gluconate,-0.1307
same,Metabolite data: ADP-D-Glucose,0.2839
same,Metabolite data: Acetyl-CoA,-0.6106
same,Metabolite data: Acetyllysine,-2.328
same,Metabolite data: Aconitate,1.12
same,Metabolite data: CDP,0.04523
same,Metabolite data: CDP-Ethanolamine,-0.09201
same,Metabolite data: CDP-choline,0
same,Metabolite data: CMP,1.401
same,Metabolite data: CTP,-0.9536
same,Metabolite data: Citrate/Isocitrate,0.1284
same,Metabolite data: Cyclic-AMP,-1.252
same,Metabolite data: Dihydroorotate,-2.603
same,Metabolite data: FAD,-1.458
same,Metabolite data: FMN,-1.104
same,"Metabolite data: Fructose-1,6-Bisphosphate",-0.7765
same,Metabolite data: Fumarate,0.221
same,Metabolite data: GDP,-2.218
same,Metabolite data: GMP,-2.3136
same,Metabolite data: GTP,-1.102
same,Metabolite data: Glucose-1/6-Phosphate,-0.8546
same,Metabolite data: Glutathione Disulfide,-0.003594
same,Metabolite data: Hexose,0
same,Metabolite data: Hydroxyisocaproic acid,0
same,Metabolite data: Indole,0.01538
same,Metabolite data: Ketoleucine,0
same,Metabolite data: L-arginino-succinate,0
same,Metabolite data: Lactate,-1.557
same,Metabolite data: Malate,0.2276
same,Metabolite data: Myo-Inositol,-4.078
same,Metabolite data: N-Acetyl-Glutamate,-0.1913
same,Metabolite data: N-Acetyl-L-Alanine,-1.649
same,Metabolite data: N-Acetyl-L-Ornithine,-1.387
same,Metabolite data: N-Carbamoyl-L-Aspartate,-4.081
same,Metabolite data: NAD+,-0.3968
same,Metabolite data: NADH,0.5171
same,Metabolite data: NADP+,-0.1788
same,Metabolite data: NADPH,3.012
same,Metabolite data: Nicotinate,0.6001
same,Metabolite data: Octulose 8/1-Phosphate,-0.3837
same,Metabolite data: Orotate,0.7127
same,Metabolite data: PD,-1.25
same,Metabolite data: PE,-3.092
same,Metabolite data: PEEK,-1.29
same,Metabolite data: Phenol Red,0
same,Metabolite data: Pyroglutamic acid,-0.07146
same,Metabolite data: S-Adenosyl-L-Homocysteine,-0.5514
same,Metabolite data: S-methyl-5'-thioadenosine,-0.2796
same,Metabolite data: SD,-3.659
same,Metabolite data: Sedoheptulose Bisphosphate,-0.9288
same,Metabolite data: UDP,-0.7526
same,Metabolite data: UDP-D-Glucose,-0.1564
same,Metabolite data: UDP-D-Glucuronate,-0.198
same,Metabolite data: UDP-N-Acetyl-Glucosamine,0.08301
same,Metabolite data: UMP,-0.4316
same,Metabolite data: UTP,-1.732
same,Metabolite data: a-ketoglutarate,0.4286
same,Metabolite data: acetyl-aspartate,0
same,Metabolite data: arginine,0
same,Metabolite data: asparagine,0
same,Metabolite data: aspartate,0
same,Metabolite data: biotin,0
same,Metabolite data: chlorpropamide,0
same,Metabolite data: coenzyme A,0
same,Metabolite data: dAMP,2.428
same,Metabolite data: dATP,-0.7133
same,Metabolite data: dCDP,1.868
same,Metabolite data: dCMP,1.752
same,Metabolite data: dCTP,0.5805
same,Metabolite data: dGDP/ADP,-2.35
same,Metabolite data: dGMP/AMP,-1.067
same,Metabolite data: dGTP/ATP,0
same,Metabolite data: dTDP,2.593
same,Metabolite data: dTMP,4.089
same,Metabolite data: dTTP,1.546
same,Metabolite data: folate,0
same,Metabolite data: glucono-lactone,0
same,Metabolite data: glutamate,0
same,Metabolite data: glutamine,0
same,Metabolite data: glutathione,0
same,Metabolite data: histidine,0
same,Metabolite data: hydroxyproline/Aminolevulinate,0
same,Metabolite data: isoleucine,0
same,Metabolite data: leucine,0
same,Metabolite data: maleic acid,0
same,Metabolite data: methionine,0
same,Metabolite data: nicotinamide mononucleotide,0
same,Metabolite data: orotidine-5'-phosphate,0
